Results taken from ChEMBL document CHEMBL1201862, “PubChem BioAssay data set” (2004).
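Briefly, cells in 96-well plates were exposed to five compound concentrations for 48 h, and endpoints were estimated by linear interpolation. Here, GI50 denotes the concentration required for 50% inhibition of growth.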 Activity calls are given as the source filed them. Cut-off read from the data, not from the text of the source: active = GI50 up to about 1.1 µM and inactive = higher.

Key:
Assay in all cases: NCI anticancer screen, dose series, 48 h
[1] = system: EKVX
[2] = system: Hs-578T
[3] = system: NCI-H23
[4] = system: HCT-116
[5] = system: A549
[6] = system: MDA-N
[7] = system: ACHN
[8] = system: IGROV-1
[9] = system: HL-60
[10] = system: SF-539
[11] = system: MOLT-4
[12] = system: A498
[13] = system: PC-3
[14] = system: OVCAR-3
[15] = system: K562
[16] = system: NCI-H460
[17] = system: U-251
[18] = system: MDA-MB-435
[19] = system: TK-10
[20] = system: HCT-15
[21] = system: OVCAR-8
[22] = system: SK-MEL-5
[23] = system: M14
[24] = system: OVCAR-5
[25] = system: NCI-H226
[26] = system: SK-MEL-28
[27] = system: BT-549
[28] = system: T47D
[29] = system: SN12C
[30] = system: MCF7
[31] = system: OVCAR-4
[32] = system: UO-31
[33] = system: UACC-257
[34] = system: CAKI-1
[35] = system: SK-OV-3
[36] = system: LOX IMVI
[37] = system: COLO 205
[38] = system: CCRF-CEM
[39] = system: KM12
[40] = system: UACC-62
[41] = system: HOP-62
[42] = system: HT-29
[43] = system: RXF 393
[44] = system: SK-MEL-2
[45] = system: NCI/ADR-RES
[46] = system: HOP-92
[47] = system: MDA-MB-231
[48] = system: 786-0
[49] = system: SF-268
[50] = system: SR
[51] = system: SNB-75
[52] = system: Malme-3M
[53] = system: SF-295
[54] = system: SNB-19
[55] = system: NCI-H522
[56] = system: SW-620
[57] = system: HCC 2998
[58] = system: RPMI-8226
[59] = system: DU-145

## CCCCCCCCC[n+]1cccc(C2C(C(=O)OCC)=C(C)NC(C)=C2C(=O)OCC)c1
[1]
  GI50: 11.9 µM (inactive)
[2]
  GI50: 3.1 µM (inactive)
[3]
  GI50: 4.36 µM (inactive)
[4]
  GI50: 4 µM (inactive)
[5]
  GI50: 18.2 µM (inactive)
[6]
  GI50: 2.13 µM (inactive)
[7]
  GI50: 14.6 µM (inactive)
[8]
  GI50: 2.02 µM (inactive)
[9]
  GI50: 2.82 µM (inactive)
[10]
  GI50: 4.15 µM (inactive)
[11]
  GI50: 3.98 µM (inactive)
[12]
  GI50: 18.2 µM (inactive)
[13]
  GI50: 4.27 µM (inactive)
[14]
  GI50: 3.86 µM (inactive)
[15]
  GI50: 3.89 µM (inactive)
[16]
  GI50: 5.7 µM (inactive)
[17]
  GI50: 3.21 µM (inactive)
[18]
  GI50: 2.08 µM (inactive)
[19]
  GI50: 10.7 µM (inactive)
[20]
  GI50: 16 µM
[21]
  GI50: 3.39 µM (inactive)
[22]
  GI50: 1.88 µM (inactive)
[23]
  GI50: 2.7 µM (inactive)
[24]
  GI50: 10.7 µM (inactive)
[25]
  GI50: 11.9 µM (inactive)
[26]
  GI50: 2.44 µM (inactive)
[27]
  GI50: 1.71 µM (inactive)
[28]
  GI50: 5.04 µM (inactive)
[29]
  GI50: 4.67 µM (inactive)
[30]
  GI50: 2.6 µM (inactive)
[31]
  GI50: 6.9 µM (inactive)
[32]
  GI50: 16.2 µM (inactive)
[33]
  GI50: 2.38 µM (inactive)
[34]
  GI50: 13.6 µM (inactive)
[35]
  GI50: 11.3 µM (inactive)
[36]
  GI50: 2.92 µM (inactive)
[37]
  GI50: 2.56 µM (inactive)
[38]
  GI50: 2.11 µM (inactive)
[39]
  GI50: 1.98 µM (inactive)
[40]
  GI50: 1.54 µM (inactive)
[41]
  GI50: 13 µM (inactive)
[42]
  GI50: 3.96 µM (inactive)
[43]
  GI50: 2.03 µM (inactive)
[44]
  GI50: 1.65 µM (inactive)
[45]
  GI50: 52.6 µM (inactive)
[46]
  GI50: 1.95 µM (inactive)
[47]
  GI50: 2.97 µM (inactive)
[48]
  GI50: 7.08 µM (inactive)
[49]
  GI50: 4.67 µM (inactive)
[50]
  GI50: 5.74 µM (inactive)
[51]
  GI50: 3.67 µM (inactive)
[52]
  GI50: 1.9 µM (inactive)
[53]
  GI50: 17 µM (inactive)
[54]
  GI50: 3.45 µM (inactive)
[55]
  GI50: 2.68 µM (inactive)
[56]
  GI50: 4.26 µM (inactive)
[57]
  GI50: 6.01 µM (inactive)
[58]
  GI50: 1.54 µM (inactive)
[59]
  GI50: 11.6 µM (inactive)
